Measurements taken from US5204361A, “Method for treating laminitis in equine livestock” (priority 1988, dated 1993).

What was measured:
Type in all cases: cell-based, horse
[1] = system: caecal and large colon digesta; assay: Experiment 2 Part 4: digesta of virginiamycin-fed horses incubated with cornstarch; settings: for L-lactate, incubated digesta / pH, incubated digesta: digesta of virginiamycin-fed horses incubated 20 hours with cornstarch 15 mg/ml, n = 5, mean
Protocol: (§1) Digesta was taken from the caecum and large colon from recently slaughtered animals and was filtered through nylon gauze (approximately 60 micron apertures). The fluid was diluted 1:1 with a buffer solution described by Bales et al. (1976) and incubated with wheat "corn starch" (with or without antibiotics) at 37° for 16 to 20 hours. Aliquots of digesta diluted with buffer (50 ml) were added to 100 ml conical flasks. The flasks were flushed with carbon dioxide before being sealed with a tightly fitting rubber cap. A 21 gauge needle was inserted through the rubber seal in order to allow gas to escape during the fermentation. On removal from the incubator sub-samples were immediately taken to measure L-lactic acid concentration and pH. For each treatment or level of antibiotic three replicate incubation flasks were used.
A total of ten horses were used for this experiment. Five horses were offered 5 kg of a pelleted mixture (ground wheat 92.5%, ground lucerne chaff 5% and `Stafac 20` 2.5% to supply approximately 2.5 g virginiamycin. A further 5 horses were offered the same feed but without virginiamycin. Samples of caecal and large colon digesta were taken for analysis of pH, VFA, virginiamycin and L-lactate. Samples were also prepared as described above with buffer solution and incubated (1 flask/sample) with cornstarch (15 mg/ml diluted digesta). Following 20 hours incubation samples were taken for analysis of L-lactate and pH.

[2] = system: caecal/large colon digesta; assay: Experiment 2 Part 5: efficacy of tylosin relative to virginiamycin, digesta incubated with glucose; settings: antibiotic 1.00 μg/ml, 37°, 20 hours, mean
[3] = system: caecal/large colon digesta; assay: Experiment 2 Part 2: in vitro fermentation with cornstarch, antibiotics at or below 2 ug/ml; settings: for L-lactate / pH: cornstarch 0.75 g per flask, 16 hours, mean
Protocol: as §1
Incubation flasks were set up as described above with cornstarch (0.75 g) containing virginiamycin, flavomycin or zinc-bacitracin a levels to provide: 0, 0.25, 0.5, 1.0 and 2 ug antibiotic/ml incubation mixture. These flasks were incubated for 16 hours. Flasks were also set up with 0.75 g cornstarch and no antibiotic equipped with a tap and sampling tube in order to take samples from the incubation vessels at various times during the fermentation. Samples were taken at the start of the incubation and at 2, 4, 6, 8, 12 and 24 h. These were analysed for L-lactate concentration and pH.

[4] = system: caecal/large colon digesta; assay: Experiment 2 Part 5: efficacy of tylosin relative to virginiamycin, digesta incubated with glucose; settings: digesta incubated with glucose, 37°, 20 hours, mean
Protocol: An in vitro fermentation experiment was conducted to determine the efficacy of tylosin relative to virginiamycin. Samples of strained caecal and large colon digesta (16 ml) were incubated with glucose solution (60 ug/ml) (4 ml) and varying concentrations of either tylosin or virginiamycin representing […], 2.0, 4.0 ug of tylosin or virginiamycin per ml. The 25 ml containers were incubated at 37° for 20 hours. There were three replicates per treatment.

[5] = system: caecal and large colon contents; assay: Experiment 2 Part 3: in vitro screening at 2 ug/ml in digesta of four horses; settings: for pH / L-lactate: 2 ug antibiotic/ml, 15 mg cornstarch/ml, 20 hour incubation
Protocol: as §1
All four of the antibiotics, listed above, were incubated as previously described to provide 2 ug antibiotic and 15 mg cornstarch per ml incubation mixture. There was one flask per test and each antibiotic was incubated in digesta from both the caecum and the large colon taken from each of 4 animals. Samples of incubation fluid were taken following a 20 hour incubation and were analysed for L-lactate and pH.

Substance: virginiamycin
- L-lactate, incubated digesta ([1]; Caecum): 5.5 mmol/L
- pH, incubated digesta ([1]; Caecum): 5.2
- L-lactate, incubated digesta ([1]; Colon): 1.8 mmol/L
- pH, incubated digesta ([1]; Colon): 5.3
- lactic acid produced following incubation with cornstarch versus controls ([1]; digesta from animals that had consumed virginiamycin, p<0.001): significantly less
- pH in the incubated digesta versus controls ([1]; digesta from animals that had received virginiamycin): higher pH
- L-lactate [2]: 9.3 mmol/L
- L-lactate ([3]; antibiotic 0.25 μg/ml): 28.4 mmol/L
- pH ([3]; antibiotic 0.25 μg/ml): 5.45
- L-lactate ([3]; antibiotic 0.50 μg/ml): 28.8 mmol/L
- pH ([3]; antibiotic 0.50 μg/ml): 5.44
- L-lactate ([3]; antibiotic 1.00 μg/ml): 3.2 mmol/L
- pH ([3]; antibiotic 1.00 μg/ml): 5.66
- L-lactate ([3]; antibiotic 2.00 μg/ml): 1.4 mmol/L
- pH ([3]; antibiotic 2.00 μg/ml): 5.78
- control of lactic acid compared with the other antibiotics ([3]; at concentrations of 1 ug/ml): best control of lactic acid
- L-lactate ([4]; antibiotic 0.50 μg/ml): 25 mmol/L
- L-lactate ([4]; antibiotic 2.00 μg/ml): 11.0 mmol/L
- L-lactate ([4]; antibiotic 4.00 μg/ml): 7.7 mmol/L
- pH ([5]; Horse 1): 5.40
- L-lactate ([5]; Horse 1, mean of caecum and large colon): 0.3 mmol/L
- pH ([5]; Horse 2): 4.94
- L-lactate ([5]; Horse 2, mean of caecum and large colon): 34.1 mmol/L
- pH ([5]; Horse 3): 5.17
- L-lactate ([5]; Horse 3, mean of caecum and large colon): 7.6 mmol/L
- pH ([5]; Horse 4): 5.27
- L-lactate ([5]; Horse 4, mean of caecum and large colon): 12.3 mmol/L
- L-lactate ([5]; Mean of 4 horses): 13.6 mmol/L
- pH ([5]; Mean of 4 horses): 5.19
- pH of the incubation fluid relative to unmedicated control ([5]; all horses, 2 ug/ml, p,0.01): significant increase
- L-lactate concentration relative to unmedicated control ([5]; all horses, 2 ug/ml, p<0.001): significant reduction
